Where two headings read alike, the source gives them in different places.
Columns and labels:
miR-21 = assay: High throughput primary miR-21 FLuc reporter assay (concentration-response); type: cell-based, human; conditions: Table 12 singletons, read-out: AC50
How it was run: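 HeLa cells carrying a Luc-miR-21 firefly luciferase reporter were treated with compound for 48 h. miR-21 inhibition was read as increased luciferase signal. Concentration-response data were fitted with a four-parameter logistic model.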

mature miR-21 = assay: Quantitative RT-PCR of mature miR-21; type: cell-based, human; conditions: HCT116 colon cancer cells and A172 glioblastoma cells, FIG. 6B
Text: (§1) UNG (Applied Biosystems). […] (Sigma).

[1] = tested on: primary miR-21 (pri-miR-21); assay: Quantitative RT-PCR of primary miR-21; type: cell-based, human; conditions: HCT116 colon cancer cells and A172 glioblastoma cells, FIG. 6A
Text: as §1

[2] = tested on: HEK293T (human embryonic kidney) cells; assay: Cell viability assay, HEK293T cells; type: cell-based; conditions: 10 μM Compound
Text: In these assays, A172 cells (glioblastoma cells) were contacted with a miR-21 inhibitor either alone or in combination with a conventional antiproliferative agent (i.e., 5-fluorouracil or curcumin). At the concentrations indicated, no toxic effects on HEK293T (human embryonic kidney) cells were observed.

`O=C(Nc1ccc(N2CCOCC2)cc1)c1cc(F)c(F)cc1Cl` [Compound 330] gave an AC50 (miR-21; Homo sapiens) of 16.5 µM.

With `CCC(C)NC(=O)c1ccc2c(c1)S(=O)(=O)c1ccccc1C2=O` (stereo not drawn) [Compound 331] the AC50 (miR-21; Homo sapiens) was 16.5 µM.

`CSc1c(C#N)c(N)c(C#N)c2c1COC(C)(C)C2` [Compound 332] showed an AC50 (miR-21; Homo sapiens) of 18.5 µM.

Work on `CCOC(=O)Nc1ccc2c(c1)ncn2C1CCCCC1` [Compound 333] yielded an AC50 (miR-21; Homo sapiens) of 18.5 µM.

`CC1Oc2ccccc2N(CC(=O)NCc2cccs2)C1=O` (stereo not drawn) [Compound 334] gave an AC50 (miR-21; Homo sapiens) of 18.5 µM.

`CCOC(=O)C1CCCN(Cc2cccc(Cl)c2)C1` (stereo not drawn) [Compound 335] gave an AC50 (miR-21; Homo sapiens) of 18.5 µM.

`Nc1cccc(CCc2nc3ccccc3[nH]2)c1` [Compound 336] was tested, and the AC50 (miR-21; Homo sapiens) was 18.5 µM.

Molecule `CC(=O)N(C)c1ccc(N/C(S)=N/c2cccc3ccccc23)cc1` [Compound 337] has an AC50 (miR-21; Homo sapiens) of 18.5 µM.

`Cn1c(=N)n(CC(=O)C(C)(C)C)c2ccccc21` [Compound 338] gave an AC50 (miR-21; Homo sapiens) of 18.5 µM.

With `O=C(NC1CCCCCC1)C1CCCN(c2ncccn2)C1` (stereo not drawn) [Compound 339] the AC50 (miR-21; Homo sapiens) was 18.5 µM.

For `COC(=O)C1C(=O)C=C(Nc2ccc(F)cc2F)CC1c1ccccc1` (stereo not drawn) [Compound 340], the AC50 (miR-21; Homo sapiens) was 18.5 µM.

`CCN(CC)CCCNC(=O)CCC(=O)Nc1ccc2nc(N3CCC(C)CC3)cc(C)c2c1` [Compound 341] showed an AC50 (miR-21; Homo sapiens) of 18.5 µM.

Work on `Cc1ccc(/C=N/NC(=O)NC2CCCCC2)o1` [Compound 342] yielded an AC50 (miR-21; Homo sapiens) of 18.5 µM.

For `COC(=O)C1C(=O)C=C(Nc2ccc(F)cc2F)CC1c1ccccc1` (stereo not drawn) [Compound 343], the AC50 (miR-21) was 18.5 µM.

`CCNc1ccc(/N=N/c2c(C)n(C)n(-c3ccccc3)c2=O)cc1` [Compound 344] was tested, and the AC50 (miR-21; Homo sapiens) was 16.5 µM.

Work on `O=C(CN1c2ccc(Br)cc2-c2ccccc2[S+]1(=O)[O-])N1CCCCC1` [Compound 345] yielded an AC50 (miR-21; Homo sapiens) of 9.27 µM.

Molecule `Cc1ccc2oc(=O)c(/C=C(\O)c3cccs3)nc2c1` [Compound 346] has an AC50 (miR-21; Homo sapiens) of 14.7 µM.

With `COc1ccc(C2Nc3ccccc3C(=O)N2c2ccc(C)cc2)cc1Cn1nc(C)c([N+](=O)[O-])c1C` (stereo not drawn) [Compound 347] the AC50 (miR-21; Homo sapiens) was 3.09 µM.

For `COc1cc(/C=C/C(=O)CC(=O)/C=C/c2ccc(O)c(OC)c2)ccc1O` [Curcumin, curcumin, reference compound], the “mature miR-21 expression” value (mature miR-21) was “increased” and the “primary miR-21 expression” value [1] was “increased”.

For `C[C@]12CC[C@@H]3c4ccc(O)cc4CC[C@H]3[C@@H]1CCC2=O` [estrone, reference compound], the “Cell Viability HEK293T Cells” value [2] was 85%.

— patent US20120010177A1, “MicroRNA Modulators and Method for Identifying And Using The Same” (The Wistar Institute / North Carolina State University, priority 2008, published 2012)
